Laboratory results as given in PMC8587750, “Structural Optimization and Biological Activity of Pyrazole Derivatives: Virtual Computational Analysis, Recovery Assay and 3D Culture Model as Potential Predictive Tools of Effectiveness against Trypanosoma cruzi” (Molecules, 2021).
Entries after “also recorded” stand apart in the source; their conditions may differ. Where two headings read alike, the source gives them in different places.

Experiments:
[1] = test system: trypomastigote forms of T. cruzi; set-up: method as in PMID 31434040; settings: read-out: IC50 against trypomastigotes; cited from earlier work
[2] = test system: intracellular parasites in T. cruzi-infected microtissue; assay: 3D-microtissue-based phenotypic screening (T. cruzi-infected Vero spheroids); format: cell-based, Trypanosoma cruzi; settings: 72 h treatment; for viability of intracellular parasites in microtissue, luminescence intensity (ALU): Bz 100 µM
Description: Vero cells were seeded at a density of 2 × 10^5 cells/well in a 96-well U-bottom plate previously coated with agarose (1%). The 3D cultures, adapted from, were cultivated for 4 days in RPMI 1640 medium supplemented with 10% FBS and L-glutamine for complete 3D microtissue formation. The 3D culture model was used as a tool to evaluate the effectiveness of promising derivatives in eliminating intracellular parasites in the microtissue.
The 3D-microtissue-based phenotypic screening was performed with the promising pyrazole derivatives. […] At the end of the treatment, the 3D cultures supernatants were removed, and luciferin (300 μg/mL) was added to the spheroids. The luminescent signal was read on the Glomax-Multi Detection reader (Promega Corporation, Madison, WI, USA). Bz (100 µM) and DMSO (≤1%) were used as positive and negative control, respectively. The IC50 value was calculated by linear regression. At least three independent assays were performed in quadruplicate.

[3] = test system: intracellular amastigotes of T. cruzi; assay: Activity against intracellular amastigotes in infected Vero cells (Dm28c-Luc, 72 h); format: cell-based, Trypanosoma cruzi; settings: for IC90: read-out: Trypanocidal Activity Intracellular Amastigotes IC90
Source text: (§1) T. cruzi Dm28c clone genetically modified to express luciferase, kindly provided by Dr. Cristina Henriques from Oswaldo Cruz Institute–Fiocruz, was used in the drug assays. Trypomastigotes were harvested from T. cruzi-infected Vero cultures supernatants at 4th days post-infection (dpi) and used in the phenotypic screening assay. For intracellular amastigotes assays, Vero cells (2D and 3D cultures) were infected at a ratio of 10:1 parasites/host cells.
The effect of the pyrazole derivatives against intracellular amastigotes was also evaluated after 72 h treatment (37 °C) with compound concentrations ranging from 0.04–100 µM [13]. Parasite viability, measured by luminescent signal, was determined after luciferin (300 µg/mL) addition. IC50 and IC90 values were calculated by linear regression. Selectivity index (SI) was calculated as the ratio of the CC50 to IC50 values. The non-toxic concentration of DMSO (less than 1% v/v) was used in all assays. A minimum of three independent assays was carried out in duplicate.

[4] = test system: T. cruzi (Dm28c-Luc) in Vero cells; assay: Reversibility (washout) assay, parasite recrudescence in infected Vero cells; format: cell-based, Trypanosoma cruzi; settings: for decrease of parasite load compared to untreated infected Vero cell cultures: 72 h treatment at IC90, washout, 72 h without drug
Description: To address the question of whether the treatment with 3g, 3j, and 3m leads to parasite clearance, an intracellular T. cruzi washout assay was performed as a strategy for monitoring the parasite recrudescence. In this approach, cultures of infected Vero cells (Dm28c-Luc) were treated for 72 h at IC90 and 50 µM (2 to 5-fold de IC90) concentrations of the promising compounds 3g, 3j, and 3m and, after washing the cell monolayers, the cultures were kept for another 72 h without drug treatment. Both cell monolayers and their supernatants were evaluated for the presence of viable parasites after luciferin addition. All derivatives analyzed relapsed at the IC90 concentration (Figure 3). However, treatment with 3g, 3j, and 3m led to a significant reduction in the parasite load, reaching a decrease of 4.5-, 1.9-, and 8.7-fold, respectively, when compared to untreated infected Vero cells cultures (Figure 3). The emergence of trypomastigotes in the supernatant, at IC90 concentration, was observed three days after removal of drug pressure, but with a significant reduction in viable parasites compared to untreated cultures (Figure 3). Parasite recrudescence was not seen in 100 µM Bz treatment (Figure 3).
The washout assay, adapted from, was performed to evaluate the promising compounds efficacy. […] After successive washing, the cultures were maintained for an additional 72 h at 37 °C in RPMI 1640 medium supplemented with 10% SFB in the absence of the compound. Luciferin (300 µg/mL) was added separately to the culture supernatant, previously removed, and the cell monolayer. The luminescent signal was read on the Glomax-Multi Detection reader (Promega Corporation, Madison, WI, USA). Bz (100 µM) and DMSO (≤1%) were used as positive and negative reaction controls, respectively.

[5] = Cytotoxicity in vitro assay (ATP, CellTiter Glo, 72 h); format: cell-based; settings: African green monkey, Vero cells
Description: Vero cells, obtained from the Rio de Janeiro Cell Bank (BCRJ code 0245), were cultured in RPMI-1640 supplemented with 10% fetal bovine serum (FBS) and 1 mM L-glutamine, as previously described. Vero cells were used for drug screening assays and to obtain trypomastigote forms of T. cruzi.
Vero cells were used as a cellular model to analyze the toxic effect of pyrazole derivatives, series 1(a–l), 2(a–l), 3(a–n), 4(a–c), and 5(a–c), and Benznidazole (Bz) on mammalian cells. Briefly, the cells, plated on 96-well white opaque microplate (1.5 × 10^4 cells/well), were treated for 72 h at 37 °C with a wide range concentration (500–1.95 µM) of the pyrazole derivatives. The cell viability was determined by measuring ATP levels using the CellTiter Glo Kit (Promega Corporation, Madison, WI, EUA) followed by reading the luminescent signal on the Glomax-Multi Detection plate reader (Promega Corporation, Madison, WI, EUA)). All treatments and controls were performed at a low concentration of DMSO (≤1%). The 50% cytotoxic concentration values (CC50; the concentration of the compound that reduces 50% of the cell viability) were estimated by linear regression analysis. Three independent assays were performed in duplicate.

[6] = test system: trypomastigote forms of T. cruzi; assay: Phenotypic screening against T. cruzi trypomastigotes (Dm28c-Luc, luciferase viability, 24 h); format: cell-based, Trypanosoma cruzi; settings: for Trypomastigotes SI: CC50 of Vero cells/IC50 of trypomastigote; for IC50 / IC90: Trypanosoma cruzi, Dm28c-Luc, 24 h; for IC50: read-out: Trypanocidal Activity Trypomastigotes IC50; for IC90: read-out: Trypanocidal Activity Trypomastigotes IC90
Source text: as §1
The phenotypic compound screening was performed using transgenic T. cruzi parasites expressing the firefly luciferase (Dm28c-Luc). Trypomastigotes (1 × 10^6 parasites/well) were treated for 24 h at 37 °C with the pyrazole derivatives and Bz (0.04–100 μM), followed by incubation with luciferin substrate (300 µg/mL) to determine parasite viability through luciferase activity. The concentration that reduces the number of viable parasites by 50% (IC50) or 90% (IC90) was calculated by linear regression. The luminescent signal was read on a Glomax-Multi Detection plate reader (Promega Corporation, Madison, WI, EUA)). At least three independent assays were performed in duplicate.

[7] = test system: T. cruzi cysteine protease; assay: Cysteine protease activity of trypomastigote total protein extracts (Z-FR-AMC); format: biochemical, Trypanosoma cruzi; settings: 300 µM, Z-FR-AMC 60 µM, pH 5.0, 37 °C
Description: Total protein extract from trypomastigotes (Dm28c-Luc; 10^8 parasites/mL) were extracted with lysis buffer. Cysteine protease activity of extracts (5 μg) was measured in acetate buffer using fluorogenic peptide substrate (60 μM of 7-Amino-4-Methylcoumarin hydrochloride, CBZ-L-Phenylalanyl-L-Arginine amide (Z-FR-AMC). Total protein extracts were incubated for 45 min at room temperature with the compounds and changes in relative fluorescence units monitored using a SpectraMaxM2e spectrophotometer (Molecular Devices, Sunnyvale, CA, USA) for 1 h with excitation at 370 nm and emission at 460 nm. The inhibition assays were performed by coincubation with different compounds (3g, 3j, and 3m) and concentrations (300–11.11 µM) and transepoxysuccinyl-L-leucylamido-(4-guanidino) butane (E-64). Additional control was carried out with DMSO (≤1%). Enzymatic activity was expressed in µmol/min/mg of protein and the residual activity in percentage.
Figure 6 Inhibition of T. cruzi cysteine protease activity. Total protein extracts of trypomastigotes (5 µg), was incubated at different concentrations (300–11.11 µM) of compounds E64 (black circle), 3g (black triangle), 3j (black square) and 3m (white circle) in enzyme activation buffer pH 5.0, at 37 °C. Enzyme activity was measured using a specific fluorogenic peptide substrate Z-FR-AMC (60 µM). Results are presented as percentage of inhibition of enzyme activity (%) and represent the mean and standard deviation (±) of three independent experiments.

[8] = test system: T. cruzi-infected cardiac microtissue; set-up: method as in PMID 32564978; settings: 5 nM; cited from earlier work
[9] = Trypanosoma cruzi, Vero, negative log of the IC50 value in molar, read-out: Intracellular Amastigotes pIC50 (converted)
[10] = Trypanosoma cruzi, Vero cells infected with Dm28c-Luc, 72 h

Row | Compound | IC50 [1] | viability of intracellular parasites in microtissue, luminescence intensity (ALU) [2] | IC50 ([3]; Trypanosoma cruzi, Vero, 72 h, Vero cells infected with Dm28c-Luc, 72 h, read-out: Trypanocidal Activity Intracellular Amastigotes IC50) | IC50 [3, 9] | IC90 [3, 10] | IC50 ([3]; Vero cells infected with Dm28c-Luc, 72 h, read-out: Trypanocidal Activity Intracellular Amastigotes IC50) | decrease of parasite load compared to untreated infected Vero cell cultures [4] | CC50 at 72 h [5] | Trypomastigotes SI [6] | IC50 [6] | IC90 [6] | maximum inhibition of cysteine protease enzymatic activity [7] | reduction of microtissue infection [2] | fold increase of activity against intracellular amastigotes versus hit compound ([3]; compared to hit compound) | trypanocidal activity fold higher than 3e ([3]; intracellular amastigotes) | parasite recrudescence / efficacy ([4]; 50 µM (2 times IC90), 72 h after washout) | reduction of parasite load [8]
1 | 5-amino-1-aryl-4-(4,5-dihydro-1H-imidazol-2-yl)-1H-pyrazole [hit compound] | 9.5 ± 1.2 µM | – | – | – | – | – | – | – | – | – | – | – | – | – | – | – | –
2 | Clc1ccc(-n2cc(C3=NCCN3)cn2)cc1 [Compound 3g, 1-(4-chlorophenyl)-4-(4,5-dihydro-1H-imidazol-2-yl)-1H-pyrazole] | – | 36,130 ± 5764 ALU | < 10 µM | 6.03 µM | 26.1 ± 14.3 µM | 6.09 ± 0.52 µM | 4.5 fold | 277 ± 15.8 µM | 4.27 | 64.6 ± 1.56 µM | > 100 µM | 26% | – | – | – | – | –
3 | Brc1ccc(-n2cc(C3=NCCN3)cn2)cc1 [Compound 3j, 1-(4-bromophenyl)-4-(4,5-dihydro-1H-imidazol-2-yl)-1H-pyrazole] | – | 39,001 ± 9952 ALU | – | 2.75 µM | 9.67 ± 0.3 µM | – | 1.9 fold | 309 ± 34.3 µM | 5.36 | 57.7 ± 3.14 µM | 95.3 ± 5.43 µM | 26% | – | – | – | – | –
4 | Cc1ccc(-n2cc(C3=NCCN3)cn2)cc1Cl [Compound 3m, 1-(3-chloro-4-methylphenyl)-4-(4,5-dihydro-1H-imidazol-2-yl)-1H-pyrazole] | – | 12,683 ± 3976 ALU | – | 3.55 µM | 21.4 ± 1.25 µM | – | 8.7 fold | 161 ± 16.1 µM | 4.64 | 34.5 ± 8.32 µM | > 100 µM | 26% | 93% | 3.8 fold | 21 fold | without parasitism recrudescence; also recorded: same activity profile as 100 µM Bz | –
5 | CC[C@@H]([C@H](C)O)n1ncn(-c2ccc(N3CCN(c4ccc(OC[C@@H]5CO[C@@](Cn6cncn6)(c6ccc(F)cc6F)C5)cc4)CC3)cc2)c1=O [Posaconazole, posaconazole] | – | – | – | – | – | – | – | – | – | – | – | – | – | – | – | – | 50%
